Tests used:
Carbonic anhydrase 2 = Carbonic anhydrase 2 (Homo sapiens, UniProt P00918)
Description: Inhibition of human recombinant isozyme CA2 by CO2 hydration method

Carbonic anhydrase 9 = Carbonic anhydrase 9 (Homo sapiens, UniProt Q16790)
Description: Inhibition of catalytic domain of human recombinant isozyme CA9 by CO2 hydration method

Ki (Carbonic anhydrase 2)	Ki (Carbonic anhydrase 9)	Structure (SMILES)
7.8 nM		CC(=O)OC[C@H]1O[C@H](O[C@H]2[C@H](OC(C)=O)[C@@H](OC(C)=O)[C@H](OCc3cn(-c4ccc(S(N)(=O)=O)cc4)nn3)O[C@@H]2COC(C)=O)[C@H](OC(C)=O)[C@@H](OC(C)=O)[C@@H]1OC(C)=O
	84 nM	NS(=O)(=O)c1ccc(-n2cc(CO[C@@H]3O[C@H](CO)[C@@H](O[C@H]4O[C@H](CO)[C@@H](O)[C@H](O)[C@H]4O)[C@H](O)[C@H]3O)nn2)cc1
7.6 nM		NS(=O)(=O)c1ccc(-n2cc(CO[C@@H]3O[C@H](COCc4ccccc4)[C@@H](OCc4ccccc4)[C@H]3OCc3ccccc3)nn2)cc1
	9.7 nM	CC(=O)OC[C@H]1O[C@@H](OCc2cn(-c3ccc(S(N)(=O)=O)cc3)nn2)[C@H](OC(C)=O)[C@@H](OC(C)=O)[C@H]1OC(C)=O
6.9 nM	103 nM	NS(=O)(=O)c1ccc(-n2cc(COC3OC[C@@H](O)[C@@H](O)[C@@H]3O)nn2)cc1 (some centres undefined)
	107 nM	CC(=O)OC[C@H]1O[C@@H](OCc2cn(-c3ccc(S(N)(=O)=O)cc3)nn2)[C@H](OC(C)=O)[C@@H](OC(C)=O)[C@@H]1OC(C)=O
	101 nM	NS(=O)(=O)c1ccc(-n2cc(CO[C@@H]3O[C@H](CO)[C@@H](O)[C@H](O)[C@H]3O)nn2)cc1
53 nM	120 nM	NS(=O)(=O)c1ccc(-n2cc(CO[C@@H]3O[C@H](CO)[C@H](O)[C@H](O)[C@H]3O)nn2)cc1
9.3 nM	72 nM	CC(=O)O[C@H]1[C@H](OC(C)=O)C(OCc2cn(-c3ccc(S(N)(=O)=O)cc3)nn2)OC[C@H]1OC(C)=O (some centres undefined)
	69 nM	NS(=O)(=O)c1ccc(-n2cc(CO[C@@H]3O[C@H](CO)[C@@H](O)[C@H]3O)nn2)cc1

Structure (SMILES)	Ki (Carbonic anhydrase 2)	Ki (Carbonic anhydrase 9)
[N-]=[N+]=Nc1ccc(S(N)(=O)=O)cc1		105 nM
